Test results from US10059701B2 (Merck Patent GmbH, priority 2015, dated 2018).

What was measured:
IRAK1 = molecular target: T1, IRAK1 (Homo sapiens, UniProt P51617); assay: IRAK1 enzymatic assay (ADP-Glo luminescence); assay type: biochemical; conditions: purified human recombinant His-TEV-IRAK1 (194-712)
T1 construct: His-TEV-IRAK1 (194-712); His (N); TEV cleavage site (N)
Experimental: IRAK1 is a human purified recombinant enzyme (His-TEV-IRAK1 (194-712))
In this assay, IRAK1 hydrolyses ATP and autophosphorylates. Measurement of IRAK-1 inhibition is performed in 384-well format based on luminescence assay (ADP-Glo™ Kinase Assay from Promega). Purified human recombinant IRAK1 (0.3 μg/ml) and serial diluted compounds in DMSO (range of concentration from 10 μM to 0.5 nM) or controls (1% DMSO) are incubated for 15 minutes at RT in assay buffer containing 50 mM Hepes pH 7.0, Fatty acid-free BSA 0.1%, Dithiothreitol (DTT) 2 mM, MgCl2 10 mM, EGTA 0.5 mM, Triton X-100 0.01%. The kinase reaction is then initiated by the addition of ATP […] After 2 hours of incubation at RT, the reaction is stopped and the unconsumed ATP depleted by the addition of ADP-Glo™ Reagent according to supplier instructions. After 40 minutes of incubation at RT, the Kinase Detection Reagent is then added to the assay plate according to supplier instructions. After 20 minutes of incubation at RT, the luminescence signal is measured with a luminometer (PerkinElmer Envision or equivalent reader).

IRAK4 = molecular target: T2, IRAK4 (Homo sapiens, UniProt Q9NWZ3); assay: IRAK4 enzymatic assay (ADP-Glo luminescence); assay type: biochemical; conditions: purified human recombinant His-TEV-IRAK4 (1-460), ATP 2 μM
T2 construct: His-TEV-IRAK4 (1-460); His (N); TEV cleavage site (N)
T2 sequence (Q9NWZ3 1-460): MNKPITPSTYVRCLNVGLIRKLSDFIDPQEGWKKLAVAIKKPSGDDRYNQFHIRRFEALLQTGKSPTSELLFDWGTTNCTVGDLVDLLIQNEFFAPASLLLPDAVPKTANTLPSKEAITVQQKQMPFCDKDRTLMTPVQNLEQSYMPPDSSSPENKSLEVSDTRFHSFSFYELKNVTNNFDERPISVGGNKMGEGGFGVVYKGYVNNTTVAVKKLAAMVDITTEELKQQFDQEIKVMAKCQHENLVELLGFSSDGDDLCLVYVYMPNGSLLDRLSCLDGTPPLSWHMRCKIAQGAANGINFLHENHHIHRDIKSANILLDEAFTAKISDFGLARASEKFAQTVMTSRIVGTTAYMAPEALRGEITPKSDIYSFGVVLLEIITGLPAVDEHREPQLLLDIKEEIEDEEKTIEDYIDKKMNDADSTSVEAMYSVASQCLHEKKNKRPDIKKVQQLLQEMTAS
Experimental: IRAK4 is a human purified recombinant enzyme (His-TEV-IRAK4 (1-460)).
In this assay, IRAK4 hydrolyses ATP, autophosphorylates and phosphorylates a Serine/Threonine generic peptidic substrate (STK: 61ST1BLC from CisBio International). Measurement of IRAK-4 inhibition is performed in 384-well format based on a luminescence assay (ADP-Glo™ Kinase Assay from Promega). Purified human recombinant IRAK4 (0.3 μg/ml) and serial diluted compounds in DMSO (range of concentration from 10 μM to 0.5 nM) or controls (1% DMSO) are incubated for 15 minutes at RT in assay buffer containing 50 mM Hepes pH 7.0, Fatty acid-free BSA 0.1%, Dithiothreitol (DTT) 2 mM, MgCl2 10 mM, EGTA 0.5 mM, Triton X-100 0.01%, MnCl2 5 mM. The kinase reaction is then initiated by the addition of ATP (2 μM) and the peptidic substrate STK1-biotin peptide (300 nM). After 2 hours of incubation at RT, the reaction is stopped and the unconsumed ATP depleted by the addition of ADP-Glo™ Reagent according to supplier instructions. After 40 minutes of incubation at RT, the Kinase Detection Reagent is then added to the assay plate according to supplier instructions. After 20 minutes of incubation at RT, the luminescence signal is measured with a plate-reading luminometer (PerkinElmer Envision or equivalent reader).

T1 sequence (P51617 194-712): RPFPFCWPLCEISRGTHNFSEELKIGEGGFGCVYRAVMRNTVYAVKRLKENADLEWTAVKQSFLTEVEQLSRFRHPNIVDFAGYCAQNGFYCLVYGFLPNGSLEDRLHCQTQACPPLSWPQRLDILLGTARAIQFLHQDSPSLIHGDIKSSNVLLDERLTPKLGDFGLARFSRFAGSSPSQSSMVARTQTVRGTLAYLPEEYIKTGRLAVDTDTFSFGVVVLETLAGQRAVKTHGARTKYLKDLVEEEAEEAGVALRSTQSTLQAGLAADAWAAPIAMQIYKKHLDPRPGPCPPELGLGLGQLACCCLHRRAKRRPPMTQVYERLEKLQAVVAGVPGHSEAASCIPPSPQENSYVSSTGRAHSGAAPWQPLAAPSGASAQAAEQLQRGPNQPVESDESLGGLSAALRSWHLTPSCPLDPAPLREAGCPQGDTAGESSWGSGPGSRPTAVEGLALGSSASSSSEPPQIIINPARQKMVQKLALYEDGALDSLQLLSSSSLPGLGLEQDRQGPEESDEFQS

An IC50 (IRAK1) of 100 to 1000 nM and an IC50 (IRAK4) of no more than 100 nM were found for `C[C@H](CCO)n1/c(=N/C(=O)c2cccc(C(F)(F)F)c2)[nH]c2cc(N3CCOCC3=O)ccc21` [Compound 15, (R,E)-N-(1-(4-hydroxybutan-2-yl)-5-(3-oxomorpholino)-1H-benzo[d]imidazol-2(3H)-ylidene)-3-(trifluoromethyl)benzamide] in this work.

An IC50 (IRAK1) of 100 to 1000 nM and an IC50 (IRAK4) of no more than 100 nM were found for `C[C@@H](CCO)n1/c(=N/C(=O)c2cccc(C(F)F)c2)[nH]c2cc(N3CCOCC3=O)ccc21` [Compound 16, (S,E)-3-(difluoromethyl)-N-(1-(4-hydroxybutan-2-yl)-5-(3-oxomorpholino)-1H-benzo[d]imidazol-2(3H)-ylidene)benzamide] in this work.

An IC50 (IRAK1) of 100 to 1000 nM and an IC50 (IRAK4) of no more than 100 nM were found for `O=C(/N=c1\[nH]c2cc(N3CCOCC3=O)ccc2n1CCCCO)c1cccc(C(F)(F)F)c1` [Compound 17, (E)-N-(1-(4-hydroxybutyl)-5-(3-oxomorpholino)-1H-benzo[d]imidazol-2(3H)-ylidene)-3-(trifluoromethyl)benzamide] in this work.

An IC50 (IRAK1) of 100 to 1000 nM and an IC50 (IRAK4) of no more than 100 nM were found for `N#Cc1cccc(C(=O)/N=c2\[nH]c3cc(N4CCOCC4=O)ccc3n2CCCCO)c1` [Compound 18, (E)-3-cyano-N-(1-(4-hydroxybutyl)-5-(3-oxomorpholino)-1H-benzo[d]imidazol-2(3H)-ylidene)benzamide] in this work.

An IC50 (IRAK1) of 100 to 1000 nM and an IC50 (IRAK4) of no more than 100 nM were found for `CS(=O)(=O)c1cccc(C(=O)/N=c2\[nH]c3cc(N4CCOCC4=O)ccc3n2CCCCO)c1` [Compound 19, (E)-N-(1-(4-hydroxybutyl)-5-(3-oxomorpholino)-1H-benzo[d]imidazol-2(3H)-ylidene)-3-(methylsulfonyl)benzamide] in this work.

An IC50 (IRAK1) greater than 1000 nM and an IC50 (IRAK4) of 100 to 1000 nM were found for `Cn1cnc2ccc(C(=O)/N=c3\[nH]c4cc(N5CCOCC5=O)ccc4n3CCCO)cc21` [Compound 20, (E)-N-(1-(3-hydroxypropyl)-5-(3-oxomorpholino)-1H-benzo[d]imidazol-2(3H)-ylidene)-1-methyl-1H-benzo[d]imidazole-6-carboxamide] in this work.

An IC50 (IRAK1) of 100 to 1000 nM and an IC50 (IRAK4) of no more than 100 nM were found for `O=C(/N=c1\[nH]c2cc(N3CCOCC3=O)ccc2n1CCCO)c1cccc(CO)c1` [Compound 21, (E)-3-(hydroxymethyl)-N-(1-(3-hydroxypropyl)-5-(3-oxomorpholino)-1H-benzo[d]imidazol-2(3H)-ylidene)benzamide] in this work.

An IC50 (IRAK1) greater than 1000 nM and an IC50 (IRAK4) greater than 1000 nM were found for `Cn1cnc2cc(C(=O)/N=c3\[nH]c4cc(N5CCOCC5=O)ccc4n3CCCO)ccc21` [Compound 22, (E)-N-(1-(3-hydroxypropyl)-5-(3-oxomorpholino)-1H-benzo[d]imidazol-2(3H)-ylidene)-1-methyl-1H-benzo[d]imidazole-5-carboxamide] in this work.

An IC50 (IRAK1) greater than 1000 nM and an IC50 (IRAK4) of no more than 100 nM were found for `O=C(/N=c1\[nH]c2cc(N3CCOCC3=O)ccc2n1CCCO)c1ccc2c(c1)COC2=O` [Compound 23, (E)-N-(1-(3-hydroxypropyl)-5-(3-oxomorpholino)-1H-benzo[d]imidazol-2(3H)-ylidene)-1-oxo-1,3-dihydroisobenzofuran-5-carboxamide] in this work.

An IC50 (IRAK1) of 100 to 1000 nM and an IC50 (IRAK4) of no more than 100 nM were found for `C[C@H](CCO)n1/c(=N/C(=O)c2cccc(S(C)(=O)=O)c2)[nH]c2cc(N3CCOCC3=O)ccc21` [Compound 24, (R,E)-N-(1-(4-hydroxybutan-2-yl)-5-(3-oxomorpholino)-1H-benzo[d]imidazol-2(3H)-ylidene)-3-(methylsulfonyl)benzamide] in this work.

An IC50 (IRAK1) of 100 to 1000 nM and an IC50 (IRAK4) of no more than 100 nM were found for `O=C(/N=c1\[nH]c2cc(N3CCOCC3=O)ccc2n1CC1(CO)CC1)c1cc(F)cc(C(F)(F)F)c1` [Compound 25, (E)-3-fluoro-N-(1-((1-(hydroxymethyl)cyclopropyl)methyl)-5-(3-oxomorpholino)-1H-benzo[d]imidazol-2(3H)-ylidene)-5-(trifluoromethyl)benzamide] in this work.

An IC50 (IRAK1) of no more than 100 nM and an IC50 (IRAK4) of no more than 100 nM were found for `O=C(/N=c1\[nH]c2cc(N3CCOCC3=O)ccc2n1CCCCO)c1cccc(C(F)F)c1` [Compound 26, (E)-3-(difluoromethyl)-N-(1-(4-hydroxybutyl)-5-(3-oxomorpholino)-1H-benzo[d]imidazol-2(3H)-ylidene)benzamide] in this work.

An IC50 (IRAK1) of no more than 100 nM and an IC50 (IRAK4) of no more than 100 nM were found for `N#Cc1cccc(C(=O)/N=c2\[nH]c3cc(N4CCOCC4=O)ccc3n2[C@H]2CC[C@H](O)CC2)c1` [Compound 27, trans-(E)-3-cyano-N-(1-(4-hydroxycyclohexyl)-5-(3-oxomorpholino)-1H-benzo[d]imidazol-2(3H)-ylidene)benzamide] in this work.

An IC50 (IRAK1) of no more than 100 nM and an IC50 (IRAK4) of no more than 100 nM were found for `O=C(/N=c1\[nH]c2cc(N3CCOCC3=O)ccc2n1[C@H]1CC[C@H](O)CC1)c1cccc(C(F)F)c1` [Compound 28, trans-(E)-3-(difluoromethyl)-N-(1-(4-hydroxycyclohexyl)-5-(3-oxomorpholino)-1H-benzo[d]imidazol-2(3H)-ylidene)benzamide] in this work.

An IC50 (IRAK1) of no more than 100 nM and an IC50 (IRAK4) of no more than 100 nM were found for `O=C(/N=c1\[nH]c2cc(N3CCCOC3=O)ccc2n1CCCO)c1cccc(C(F)F)c1` [Compound 29, (E)-3-(difluoromethyl)-N-(1-(3-hydroxypropyl)-5-(2-oxo-1,3-oxazinan-3-yl)-1H-benzo[d]imidazol-2(3H)-ylidene)benzamide] in this work.

An IC50 (IRAK1) of 100 to 1000 nM and an IC50 (IRAK4) of 100 to 1000 nM were found for `O=C(/N=c1\[nH]c2cc(N3CCOCC3=O)ccc2n1CCCO)c1ccccc1` [Compound 30, (E)-N-(1-(3-hydroxypropyl)-5-(3-oxomorpholino)-1H-benzo[d]imidazol-2(3H)-ylidene)benzamide] in this work.

An IC50 (IRAK1) of no more than 100 nM and an IC50 (IRAK4) of no more than 100 nM were found for `CS(=O)(=O)c1cccc(C(=O)/N=c2\[nH]c3cc(N4CCOCC4=O)ccc3n2[C@H]2CC[C@H](O)CC2)c1` [Compound 31, trans-(E)-N-(1-(4-hydroxycyclohexyl)-5-(3-oxomorpholino)-1H-benzo[d]imidazol-2(3H)-ylidene)-3-(methylsulfonyl)benzamide] in this work.

An IC50 (IRAK1) of 100 to 1000 nM and an IC50 (IRAK4) of no more than 100 nM were found for `O=C(/N=c1\[nH]c2cc(N3CCOCC3=O)ccc2n1[C@H]1CC[C@H](O)CC1)c1cccc(C(F)(F)F)c1` [Compound 32, trans-(E)-N-(1-(4-hydroxycyclohexyl)-5-(3-oxomorpholino)-1H-benzo[d]imidazol-2(3H)-ylidene)-3-(trifluoromethyl)benzamide] in this work.

An IC50 (IRAK1) of no more than 100 nM and an IC50 (IRAK4) of no more than 100 nM were found for `O=C(/N=c1\[nH]c2cc(N3CCCOC3=O)ccc2n1CCCO)c1cccc(C(F)(F)F)c1` [Compound 33, (E)-N-(1-(3-hydroxypropyl)-5-(2-oxo-1,3-oxazinan-3-yl)-1H-benzo[d]imidazol-2(3H)-ylidene)-3-(trifluoromethyl)benzamide] in this work.

An IC50 (IRAK1) of no more than 100 nM and an IC50 (IRAK4) of no more than 100 nM were found for `NC(=O)/C=C/c1cccc(C(=O)/N=c2\[nH]c3cc(N4CCOCC4=O)ccc3n2CCCO)c1` [Compound 34, (E)-3-((E)-3-amino-3-oxoprop-1-en-1-yl)-N-(1-(3-hydroxypropyl)-5-(3-oxomorpholino)-1H-benzo[d]imidazol-2(3H)-ylidene)benzamide] in this work.

An IC50 (IRAK1) of 100 to 1000 nM and an IC50 (IRAK4) of no more than 100 nM were found for `O=C(/N=c1\[nH]c2cc(N3CCOCC3=O)ccc2n1CCCO)c1cccc(F)c1` [Compound 35, (E)-3-fluoro-N-(1-(3-hydroxypropyl)-5-(3-oxomorpholino)-1H-benzo[d]imidazol-2(3H)-ylidene)benzamide] in this work.

An IC50 (IRAK1) of 100 to 1000 nM and an IC50 (IRAK4) greater than 1000 nM were found for `O=C(/N=c1\[nH]c2cc(N3CCOCC3=O)ccc2n1CCCO)c1cccc(C(=O)N2CCOCC2)c1` [Compound 36, (E)-N-(1-(3-hydroxypropyl)-5-(3-oxomorpholino)-1H-benzo[d]imidazol-2(3H)-ylidene)-3-(morpholine-4-carbonyl)benzamide] in this work.
